Measured values reported in patent publication US6903104B2, “Indol-3-YL-2-oxoacetamide compounds and methods of use thereof” (National Health Research Institutes, priority 2001, dated 2005).

System: human colorectal SW480 tumor xenograft
Test: Antitumor activity, human colorectal SW480 tumor xenograft
Type: in vivo, athymic nude mice
Procedure: Human colorectal SW480 cancer cells were subcutaneously implanted into the young male athymic nude mice at 1 million cells per mouse. The treatment schedule of 200 mg/kg daily oral administration for 6 weeks was initiated at the time which the tumor size reached 50˜100 mm^3. Compound was orally gavaged to the nude mice subcutaneously bearing human colorectal SW480 tumor xenograft based on the treatment schedule. The tumor size and body weight of the animals were monitored twice a week through out the 70-day period of observation. The tumor growth was suppressed by the daily oral treatments of compound 56. Tumor sizes of the treated and vehicle control groups were compared at the end of 70-day observation. The size of tumor mass subcutaneously implanted in the nude mice for the treated group was reduced to 26% compared to that of the vehicle control group at the end of the observation period.

## Cc1cc(Cn2cc(C(=O)C(=O)Nc3cc(C)ns3)c3ccccc32)on1 [Compound 56]
200 mg/kg daily oral for 6 weeks, end of 70-day observation
  size of tumor mass compared to that of the vehicle control group: 26%
200 mg/kg daily oral treatments
  tumor growth: suppressed
Oral multiple dosing, 200 mg/kg daily for 6 weeks
  toxicity as noted by loss of the body weight: no obvious toxicity
